Laboratory results reported in PubChem BioAssay (NCI).
Several values for one entry are separate records, joined by “and”; a condition that tells them apart may be missing. Equal entries are not always repeated.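 Each compound was tested at five concentrations against cells in 96-well plates for 48 hours. The concentration for 50% growth inhibition is given as GI50. The concentration for full growth arrest is given as TGI.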

What was measured:
Assay in all cases: NCI-60 cell line screen, 48 h
A498 renal = system: A498 renal
COLO 205 colon = system: COLO 205 colon
HOP-18 NSCLC = system: HOP-18 NSCLC
M14 melanoma = system: M14 melanoma
MOLT-4 leukemia = system: MOLT-4 leukemia
OVCAR-8 ovarian = system: OVCAR-8 ovarian
SF-295 CNS = system: SF-295 CNS
SNB-78 CNS = system: SNB-78 CNS
MCF7 breast = system: MCF7 breast

SMILES | TGI (A498 renal) | TGI (COLO 205 colon) [µM] | TGI (HOP-18 NSCLC) [µM] | TGI (M14 melanoma) [µM] | TGI (MOLT-4 leukemia) [µM] | TGI (OVCAR-8 ovarian) | TGI (SF-295 CNS) [µM] | TGI (SNB-78 CNS) [µM] | GI50 (A498 renal) [µM] | GI50 (HOP-18 NSCLC) [µM] | GI50 (MCF7 breast) | GI50 (MOLT-4 leukemia) | GI50 (OVCAR-8 ovarian) | GI50 (SF-295 CNS) [µM] | GI50 (SNB-78 CNS) [µM] | TGI (MCF7 breast) [µM]
Cn1c2c(c3ccccc31)CCN(CCCCN1CCc3c(n(C)c4ccccc34)C1=O)C2 | > 100 µM | > 100 | > 100 | > 100 | > 100 | > 100 µM | > 100 | > 100 | – | – | – | – | – | – | – | –
O=C1CC(O)C=C1Nc1ccc(Cl)cc1 (stereo unspecified) | 32.6 µM | 22.3 | > 100 | > 100 | > 100 | > 100 µM | > 100 | > 100 | – | – | – | – | – | – | – | –
Cc1nc2c(nc1C)C(=O)c1cc(O)ccc1C2=O | > 100 µM | 45.2 | > 100 | > 100 | > 100 | > 100 µM | > 100 | > 100 | – | – | – | – | – | – | – | –
O=C(c1ccccc1)C(C(=O)c1ccccc1)C1(O)C(=O)c2ccccc2C1=O | > 100 µM | > 100 | > 100 | > 100 | > 100 | > 100 µM | > 100 | > 100 | – | – | – | – | – | – | – | –
N#CCC(=O)Nc1cccc(C(F)(F)F)c1 | > 100 µM | > 100 | > 100 | > 100 | > 100 | > 100 µM | > 100 | > 100 | – | – | – | – | – | – | – | –
N#Cc1cn(C2OC(CO)C(O)C2O)c2ncnc(N)c12 (stereo unspecified) | 1.51 µM and 0.634 µM | – | – | 21.9 | – | 0.889 µM and 0.178 µM | – | > 450 | 0.045 | 0.0557 | 0.0251 µM and 0.045 µM and < 0.0169 µM | 0.045 µM and 0.0319 µM | 0.0469 µM and 0.045 µM | < 0.0193 | 0.0736 | –
COc1cc(CCc2ccc(OCCN(C)C)cc2)cc(OC)c1OC | > 100 µM | 38.9 | > 100 | > 100 | > 100 | > 100 µM | > 100 | > 100 | – | – | – | – | – | – | – | –
CCOC(=O)[C@@]1(C)C=C2O[C@@H]3OC4(CCCCC4)O[C@@H]3C2=C2C(O)=CC=C(O)[C@]21C(=O)OC | > 68 µM | > 68 | > 68 | > 68 | > 68 | > 68 µM | > 68 | > 68 | – | – | – | – | – | – | – | –
COc1cc([C@H]2c3cc4c(cc3O[C@@]3(O)COC(=O)[C@@H]23)OCO4)cc(OC)c1OC | > 100 µM | > 100 | > 100 | > 100 | > 100 | > 100 µM | > 100 | > 100 | – | – | – | – | – | – | – | > 100
